Test results as given in US9695155B2, “Herbicidal substituted pyrimidinyloxy benzene compounds” (E. I. DU PONT DE NEMOURS AND COMPANY, priority 2013, dated 2017).

How the values were obtained:
ragweed = assay: Test A preemergence; type: in vivo, Ambrosia elatior; conditions: 0 to 100 scale where 0 is no effect and 100 is complete control
Procedure, shortened: (§1)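 Visual 0–100 rating (100 = complete control) taken about 10 d post-treatment relative to untreated checks. Preemergence: directed soil spray on sown loam/sand pots. Postemergence: seedlings 2–10 cm, 1–2 leaf. Non-phytotoxic solvent formulation with surfactant.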

Italian ryegrass [1] = assay: Test A preemergence; type: in vivo, Lolium multiflorum; conditions: 0 to 100 scale where 0 is no effect and 100 is complete control
Procedure, shortened: as §1

Italian ryegrass [2] = assay: Test A postemergence; type: in vivo, Lolium multiflorum; conditions: 0 to 100 scale where 0 is no effect and 100 is complete control
Procedure, shortened: as §1

giant foxtail = assay: Test A postemergence; type: in vivo, Setaria faberii; conditions: 0 to 100 scale where 0 is no effect and 100 is complete control
Procedure, shortened: as §1

corn = assay: Test A postemergence; type: in vivo, Zea mays
Procedure, shortened: as §1

blackgrass = assay: Test A postemergence; type: in vivo, Alopecurus myosuroides; conditions: 0 to 100 scale where 0 is no effect and 100 is complete control
Procedure, shortened: as §1

galium = assay: Test A postemergence; type: in vivo, Galium aparine; conditions: 0 to 100 scale where 0 is no effect and 100 is complete control
Procedure, shortened: as §1

large (Lg) crabgrass [3] = assay: Test C preemergence; type: in vivo, Digitaria sanguinalis
Procedure, shortened: (§2)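 Seeds are planted in blended loam soil and sand and treated preemergence, while seedlings in a peat moss/vermiculite medium receive postemergence sprays at 2 to 18 cm height. All plants stay in the greenhouse for 13 to 15 days before visual comparison with controls on a 0–100 scale.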

yellow nutsedge = assay: Test C preemergence; type: in vivo, Cyperus esculentus
Procedure, shortened: as §2

pigweed [4] = assay: Test C preemergence; type: in vivo, Amaranthus retroflexus
Procedure, shortened: as §2

waterhemp = assay: Test C preemergence; type: in vivo, Amaranthus rudis
Procedure, shortened: as §2

large (Lg) crabgrass [5] = assay: Test A postemergence; type: in vivo, Digitaria sanguinalis; conditions: Digitaria sanguinalis, post-emergence, 240 h
Procedure, shortened: as §1

morningglory = assay: Test A postemergence; type: in vivo, Ipomoea spp.; conditions: Ipomoea, post-emergence, 240 h, 0 to 100 scale where 0 is no effect and 100 is complete control, read-out: Plant response rating, Morningglory
Procedure, shortened: as §1

Italian ryegrass [6] = assay: Test C postemergence; type: in vivo, Lolium multiflorum; conditions: Lolium multiflorum, post-emergence
Procedure, shortened: as §2

pigweed [7] = assay: Test C postemergence; type: in vivo, Amaranthus retroflexus; conditions: Amaranthus retroflexus, post-emergence
Procedure, shortened: as §2

kochia = assay: Test C postemergence; type: in vivo, Kochia scoparia; conditions: Bassia scoparia, post-emergence
Procedure, shortened: as §2

velvetleaf = assay: Test C postemergence; type: in vivo, Abutilon theophrasti; conditions: Abutilon theophrasti, post-emergence
Procedure, shortened: as §2

chickweed = assay: Test C postemergence; type: in vivo, Stellaria media; conditions: Stellaria media, post-emergence
Procedure, shortened: as §2

[8] = 8 g ai/ha, preemergence, scale 0 to 100 (0 no effect, 100 complete control)
[9] = 16 g ai/ha, preemergence, scale 0 to 100 (0 no effect, 100 complete control)
[10] = 62 g ai/ha, preemergence, scale 0 (no effect) to 100 (complete control)
[11] = Preemergence, 31 g ai/ha, scale 0 to 100, 0 no effect, 100 complete control

Compound: N#Cc1cnn(-c2c(C#N)cccc2Oc2ncc(Br)cn2)c1 [Compound 135]
- Plant response rating, Ragweed (ragweed; 125 g ai/ha): 90
- Ragweed plant response rating (ragweed; 500 g ai/ha): 90
- Plant response rating, Ryegrass, Italian (Italian ryegrass [1]; 125 g ai/ha): 0
- Ryegrass, Italian plant response rating (Italian ryegrass [1]; 500 g ai/ha): 20
- Ryegrass, Italian plant response rating (Italian ryegrass [2]; 125 g ai/ha): 20
- Plant response rating, Ryegrass, Italian (Italian ryegrass [2]; 500 g ai/ha): 70
- Foxtail, Giant plant response rating (giant foxtail; 125 g ai/ha): 70
- Plant response rating, Foxtail, Giant (giant foxtail; 500 g ai/ha): 100
- Corn plant response rating (corn; 125 g ai/ha, 0 to 100 scale where 0 is no effect and 100 is complete control): 10
- Plant response rating, Corn (corn; 500 g ai/ha, 0 to 100 scale where 0 is no effect and 100 is complete control): 80
- Blackgrass plant response rating (blackgrass; 125 g ai/ha): 30
- Plant response rating, Blackgrass (blackgrass; 500 g ai/ha): 90
- Galium plant response rating (galium; 125 g ai/ha): 60
- Plant response rating, Galium (galium; 500 g ai/ha): 90
- Crabgrass, Large plant response rating (large (Lg) crabgrass [3]; [8]): 45
- Crabgrass, Large plant response rating (large (Lg) crabgrass [3]; [9]): 60
- Crabgrass, Large plant response rating (large (Lg) crabgrass [3]; [10]): 100
- Plant response rating, Crabgrass, Large (large (Lg) crabgrass [3]; [11]): 100
- Nutsedge, Yellow plant response rating (yellow nutsedge; [8]): 0
- Nutsedge, Yellow plant response rating (yellow nutsedge; [9]): 0
- Nutsedge, Yellow plant response rating (yellow nutsedge; [10]): 15
- Plant response rating, Nutsedge, Yellow (yellow nutsedge; [11]): 0
- Pigweed plant response rating (pigweed [4]; [8]): 50
- Pigweed plant response rating (pigweed [4]; [9]): 85
- Pigweed plant response rating (pigweed [4]; [10]): 98
- Plant response rating, Pigweed (pigweed [4]; [11]): 80
- Waterhemp plant response rating (waterhemp; [8]): 55
- Waterhemp plant response rating (waterhemp; [9]): 75
- Waterhemp plant response rating (waterhemp; [10]): 100
- Plant response rating, Waterhemp (waterhemp; [11]): 100

Compound: N#Cc1cccc(Oc2ncc(F)cn2)c1-n1cc(C(F)(F)F)cn1 [Compound 79, 3-[(5-fluoro-2-pyrimidinyl)oxy]-2-[4-(trifluoromethyl)-1H-pyrazol-1-yl]benzonitrile]
- pest or weed control at 125 g/ha (large (Lg) crabgrass [5]; 125 g ai/ha, 0 to 100 scale where 0 is no effect and 100 is complete control, read-out: Plant response rating, Crabgrass, Large): 100%
- pest or weed control at 500 g/ha (large (Lg) crabgrass [5]; 500 g ai/ha, 0 to 100 scale, 0 no effect, 100 complete control, read-out: Plant response rating Crabgrass, Large): 100%
- pest or weed control at 125 g/ha (giant foxtail; Setaria faberi, post-emergence, 240 h, 125 g ai/ha, read-out: Plant response rating, Foxtail, Giant): 100%
- pest or weed control at 500 g/ha (giant foxtail; Setaria faberi, post-emergence, 240 h, 500 g ai/ha, read-out: Plant response rating, Foxtail, Giant): 100%
- pest or weed control at 125 g/ha (morningglory; 125 g ai/ha): 100%
- pest or weed control at 500 g/ha (morningglory; 500 g ai/ha): 100%
- Corn plant response rating (crop injury, 0 = no effect, 100 = complete kill) at 125 g/ha (corn; Zea mays, post-emergence, 240 h, 125 g ai/ha, 0 to 100 scale where 0 is no effect and 100 is complete control): 80%
- plant injury at 500 g/ha (corn; Zea mays, post-emergence, 240 h, 500 g ai/ha, 0 to 100 scale, 0 no effect, 100 complete control, read-out: Plant response rating Corn): 100%
- pest or weed control at 62 g/ha (large (Lg) crabgrass [3]; Digitaria sanguinalis, pre-emergence, 62 g ai/ha, preemergence, scale 0 (no effect) to 100 (complete control), read-out: Crabgrass, Large plant response rating): 100%
- pest or weed control at 125 g/ha (large (Lg) crabgrass [3]; Digitaria sanguinalis, pre-emergence, 125 g ai/ha, preemergence, scale 0 (no effect) to 100 (complete control), read-out: Crabgrass, Large plant response rating): 100%
- pest or weed control at 250 g/ha (large (Lg) crabgrass [3]; Digitaria sanguinalis, pre-emergence, 250 g ai/ha, preemergence, scale 0 (no effect) to 100 (complete control), read-out: Crabgrass, Large plant response rating): 100%
- pest or weed control at 31 g/ha (large (Lg) crabgrass [3]; Digitaria sanguinalis, pre-emergence, Preemergence, 31 g ai/ha, scale 0 to 100, 0 no effect, 100 complete control, read-out: Plant response rating, Crabgrass, Large): 100%
- pest or weed control at 62 g/ha (yellow nutsedge; Cyperus, pre-emergence, 62 g ai/ha, preemergence, scale 0 (no effect) to 100 (complete control), read-out: Nutsedge, Yellow plant response rating): 15%
- pest or weed control at 125 g/ha (yellow nutsedge; Cyperus, pre-emergence, 125 g ai/ha, preemergence, scale 0 (no effect) to 100 (complete control), read-out: Nutsedge, Yellow plant response rating): 65%
- pest or weed control at 250 g/ha (yellow nutsedge; Cyperus, pre-emergence, 250 g ai/ha, preemergence, scale 0 (no effect) to 100 (complete control), read-out: Nutsedge, Yellow plant response rating): 75%
- pest or weed control at 31 g/ha (yellow nutsedge; Cyperus, pre-emergence, Preemergence, 31 g ai/ha, scale 0 to 100, 0 no effect, 100 complete control, read-out: Plant response rating, Nutsedge, Yellow): 10%
- pest or weed control at 62 g/ha (pigweed [4]; Amaranthus retroflexus, pre-emergence, 62 g ai/ha, preemergence, scale 0 (no effect) to 100 (complete control), read-out: Pigweed plant response rating): 100%
- pest or weed control at 125 g/ha (pigweed [4]; Amaranthus retroflexus, pre-emergence, 125 g ai/ha, preemergence, scale 0 (no effect) to 100 (complete control), read-out: Pigweed plant response rating): 100%
- pest or weed control at 250 g/ha (pigweed [4]; Amaranthus retroflexus, pre-emergence, 250 g ai/ha, preemergence, scale 0 (no effect) to 100 (complete control), read-out: Pigweed plant response rating): 100%
- pest or weed control at 31 g/ha (pigweed [4]; Amaranthus retroflexus, pre-emergence, Preemergence, 31 g ai/ha, scale 0 to 100, 0 no effect, 100 complete control, read-out: Plant response rating, Pigweed): 100%
- pest or weed control at 62 g/ha (waterhemp; Amaranthus tuberculatus, pre-emergence, 62 g ai/ha, preemergence, scale 0 (no effect) to 100 (complete control), read-out: Waterhemp plant response rating): 100%
- pest or weed control at 125 g/ha (waterhemp; Amaranthus tuberculatus, pre-emergence, 125 g ai/ha, preemergence, scale 0 (no effect) to 100 (complete control), read-out: Waterhemp plant response rating): 100%
- pest or weed control at 250 g/ha (waterhemp; Amaranthus tuberculatus, pre-emergence, 250 g ai/ha, preemergence, scale 0 (no effect) to 100 (complete control), read-out: Waterhemp plant response rating): 100%
- pest or weed control at 31 g/ha (waterhemp; Amaranthus tuberculatus, pre-emergence, Preemergence, 31 g ai/ha, scale 0 to 100, 0 no effect, 100 complete control, read-out: Plant response rating, Waterhemp): 100%
- pest or weed control at 125 g/ha (Italian ryegrass [6]; 125 g ai/ha, postemergence, read-out: Plant response rating (0 to 100), Ryegrass, Italian): 20%
- pest or weed control at 250 g/ha (Italian ryegrass [6]; 250 g ai/ha, postemergence, read-out: Plant response rating (0 to 100), Ryegrass, Italian): 20%
- pest or weed control at 31 g/ha (Italian ryegrass [6]; Postemergence, 31 g ai/ha, scale 0 to 100 (0 no effect, 100 complete control), 13 to 15 days, read-out: Plant response rating, Ryegrass, Italian): 5%
- pest or weed control at 62 g/ha (Italian ryegrass [6]; Postemergence, 62 g ai/ha, scale 0 to 100 (0 no effect, 100 complete control), read-out: Plant response rating, Ryegrass, Italian): 10%
- pest or weed control at 125 g/ha (pigweed [7]; 125 g ai/ha, postemergence, read-out: Plant response rating (0 to 100), Pigweed): 95%
- pest or weed control at 250 g/ha (pigweed [7]; 250 g ai/ha, postemergence, read-out: Plant response rating (0 to 100), Pigweed): 98%
- pest or weed control at 31 g/ha (pigweed [7]; Postemergence, 31 g ai/ha, scale 0 to 100 (0 no effect, 100 complete control), 13 to 15 days, read-out: Plant response rating, Pigweed): 75%
- pest or weed control at 62 g/ha (pigweed [7]; Postemergence, 62 g ai/ha, scale 0 to 100 (0 no effect, 100 complete control), read-out: Plant response rating, Pigweed): 95%
- pest or weed control at 125 g/ha (kochia; 125 g ai/ha, postemergence, read-out: Plant response rating (0 to 100), Kochia): 95%
- pest or weed control at 250 g/ha (kochia; 250 g ai/ha, postemergence, read-out: Plant response rating (0 to 100), Kochia): 95%
- pest or weed control at 31 g/ha (kochia; Postemergence, 31 g ai/ha, scale 0 to 100 (0 no effect, 100 complete control), 13 to 15 days, read-out: Plant response rating, Kochia): 90%
- pest or weed control at 62 g/ha (kochia; Postemergence, 62 g ai/ha, scale 0 to 100 (0 no effect, 100 complete control), read-out: Plant response rating, Kochia): 90%
- pest or weed control at 125 g/ha (velvetleaf; 125 g ai/ha, postemergence, read-out: Plant response rating (0 to 100), Velvetleaf): 70%
- pest or weed control at 250 g/ha (velvetleaf; 250 g ai/ha, postemergence, read-out: Plant response rating (0 to 100), Velvetleaf): 90%
- pest or weed control at 31 g/ha (velvetleaf; Postemergence, 31 g ai/ha, scale 0 to 100 (0 no effect, 100 complete control), 13 to 15 days, read-out: Plant response rating, Velvetleaf): 55%
- pest or weed control at 62 g/ha (velvetleaf; Postemergence, 62 g ai/ha, scale 0 to 100 (0 no effect, 100 complete control), read-out: Plant response rating, Velvetleaf): 70%
- pest or weed control at 125 g/ha (chickweed; 125 g ai/ha, postemergence, read-out: Plant response rating (0 to 100), Chickweed): 90%
- pest or weed control at 250 g/ha (chickweed; 250 g ai/ha, postemergence, read-out: Plant response rating (0 to 100), Chickweed): 95%
- pest or weed control at 31 g/ha (chickweed; Postemergence, 31 g ai/ha, scale 0 to 100 (0 no effect, 100 complete control), 13 to 15 days, read-out: Plant response rating, Chickweed): 50%
- pest or weed control at 62 g/ha (chickweed; Postemergence, 62 g ai/ha, scale 0 to 100 (0 no effect, 100 complete control), read-out: Plant response rating, Chickweed): 65%
